We go through 16 compounds from ChEMBL document CHEMBL1158619, “Synthesis and biological activity of oxadiazole and triazolothiadiazole derivatives as tyrosinase inhibitors” (Bioorg Med Chem Lett, 2010).

Active and inactive are the calls of the source. The rule behind the calls is not given here.

In one assay the target is T1, Tyrosinase (Agaricus bisporus, UniProt O42713).
T1 sequence (O42713 whole entry): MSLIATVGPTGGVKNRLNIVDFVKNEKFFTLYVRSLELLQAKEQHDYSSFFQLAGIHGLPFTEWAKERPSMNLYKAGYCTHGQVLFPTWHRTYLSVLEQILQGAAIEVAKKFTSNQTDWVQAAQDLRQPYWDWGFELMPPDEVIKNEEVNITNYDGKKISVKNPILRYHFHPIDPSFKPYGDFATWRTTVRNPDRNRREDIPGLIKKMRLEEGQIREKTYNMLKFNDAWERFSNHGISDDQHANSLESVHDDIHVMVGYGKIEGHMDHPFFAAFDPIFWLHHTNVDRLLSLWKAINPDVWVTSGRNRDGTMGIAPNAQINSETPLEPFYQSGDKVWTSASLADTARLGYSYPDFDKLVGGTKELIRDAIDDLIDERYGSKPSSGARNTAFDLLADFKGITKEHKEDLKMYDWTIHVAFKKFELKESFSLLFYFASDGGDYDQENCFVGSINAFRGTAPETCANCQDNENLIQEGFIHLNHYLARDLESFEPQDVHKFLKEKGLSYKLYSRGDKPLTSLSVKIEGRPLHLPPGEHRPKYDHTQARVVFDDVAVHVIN
Description: Inhibition of mushroom tyrosinase preincubated for 5 mins before addition of L-DOPA measured after 10 mins
`S=c1oc(Cc2cccc3ccccc23)nn1CN1CCOCC1` gave an IC50 of 1340 nM.

Consider `S=c1oc(Cc2cccc3ccccc23)nn1CN1CCNCC1`, for which half-maximal inhibition (IC50) was put at 870 nM.

`S=c1oc(Cc2cccc3ccccc23)nn1CN1CCCCC1` came in with an IC50 of 970 nM.

The compound `S=c1oc(Cc2cccc3ccccc23)nn1CN1CCCC1` displayed an IC50 of 1330 nM.

In turn, `CN1CCN(Cn2nc(Cc3cccc4ccccc34)oc2=S)CC1` came in with an IC50 of 1490 nM.

The next assay deals with T2, Tyrosinase (Agaricus bisporus) (UniProt O42713).
T2 sequence (whole entry): T1 sequence (O42713 whole entry)
Kind of assay: Inhibition of mushroom tyrosinase at 50 uM preincubated for 5 mins before addition of L-DOPA measured after 10 mins.
In the case of `Cc1cc(C)n(-c2ccc(-c3nn4c(-c5ccccc5Cl)nnc4s3)cc2)n1`, the inhibition result was “inactive”.

Take `Clc1ccccc1-c1nnc2sc(-c3nccc4ccccc34)nn12`: the inhibition entry is “inactive”.

Regarding `c1ccc2c(Cc3nnc(SCCN4CCCCC4)o3)cccc2c1`, the inhibition entry is “inactive”.

In the case of `Cc1cc(C)n(-c2ccc(-c3nn4c(Cc5cccc6ccccc56)nnc4s3)cc2)n1`, the inhibition result is “inactive”.

As to `Clc1ccccc1-c1nnc(SCCN2CCOCC2)o1`, the inhibition result was “inactive”.

With `c1ccc(-c2nnc3sc(-c4nccc5ccccc45)nn23)cc1`, the inhibition result is “inactive”.

For `c1ccc(-c2nnc(SCCN3CCCCC3)o2)cc1`, the inhibition result is “inactive”.

For the compound `Clc1ccccc1-c1nnc2sc(-c3cccnc3)nn12`, the inhibition result is “inactive”.

On to `Cc1cc(C)n(-c2ccc(-c3nn4c(-c5ccccc5)nnc4s3)cc2)n1`, for which the inhibition entry is “inactive”.

Take `Clc1ccccc1-c1nnc(SCCN2CCCCC2)o1`: the inhibition result was “inactive”.

Consider `c1ccc2c(Cc3nnc4sc(-c5nccc6ccccc56)nn34)cccc2c1`, for which the inhibition entry is “inactive”.

Usually IC50 stands for the concentration needed to halve the response being measured. Low values mean higher potency, high ones lower potency.
